Among the data in PMC8948984, “Diversified Chaetoglobosins from the Marine-Derived Fungus Emericellopsis sp. SCSIO41202” (Molecules, 2022) are IC50 values, retold here.

The structures appear in SMILES notation. Where two headings read alike, the source gives them in different places.

For one assay, the system named is PC-3 cells. Briefly: CCK-8 cytotoxicity assay, PC-3 cells. Format: cell-based. Here is the method:
Compounds 4–13 were tested for their cytotoxicity against two prostatic carcinoma cell lines, PC-3 and 22Rv1, according to the reported CCK-8 (Dojindo) method. In brief, cells were seeded in a 96-well plate at the appropriate cell concentration and then incubated for 24 h at 37 °C in a 100% relative humidity, 5% CO2 incubator. Compounds to be tested were diluted to the appropriate concentration with culture medium, and the amount of each compound was adjusted to 25 μL before adding to the cells. Docetaxel (S1148, Selleck) was used as a positive control. The medium was aspirated, a fresh complete medium with 10% CCK-8 was added to incubate in a 37 °C incubator for 2-4 h, and the absorbance of the soultion at 450 nm was measured by an Envision 2104 multilabel reader (PerkinElmer). The inhibition rate was calculated by taking the absorbance at 650 nm as a reference.

Assay [1] addresses acetylcholinesterase (AChE) (Homo sapiens, UniProt P22303). Nature of the assay: biochemical. Here is the method:
The inhibitory effects of 4–13 on AChE were measured in vitro in 96-well plates as previously described.

The mark [2] stands for this setting: in vitro, 96-well plates, read-out: AChE inhibitory activity IC50.

Sequence of acetylcholinesterase (AChE) (P22303 32-614, species assumed): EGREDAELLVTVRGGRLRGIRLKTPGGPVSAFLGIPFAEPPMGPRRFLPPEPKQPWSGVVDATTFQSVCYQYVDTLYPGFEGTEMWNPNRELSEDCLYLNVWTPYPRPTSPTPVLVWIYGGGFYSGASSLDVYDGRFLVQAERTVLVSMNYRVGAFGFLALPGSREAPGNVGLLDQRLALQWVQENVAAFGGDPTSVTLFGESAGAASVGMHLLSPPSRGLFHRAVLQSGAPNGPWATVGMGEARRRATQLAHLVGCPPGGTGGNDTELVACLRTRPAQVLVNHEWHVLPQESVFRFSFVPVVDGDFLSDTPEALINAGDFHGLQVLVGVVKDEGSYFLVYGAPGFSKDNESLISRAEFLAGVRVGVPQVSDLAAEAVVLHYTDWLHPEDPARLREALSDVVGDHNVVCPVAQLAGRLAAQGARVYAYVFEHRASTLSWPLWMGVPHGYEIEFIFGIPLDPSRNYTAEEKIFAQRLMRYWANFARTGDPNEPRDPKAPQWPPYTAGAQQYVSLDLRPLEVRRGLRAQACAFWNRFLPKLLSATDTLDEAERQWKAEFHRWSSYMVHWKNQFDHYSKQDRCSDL

Take `C=C1[C@@H](C)[C@H]2[C@H](Cc3c[nH]c4ccccc34)NC(=O)[C@]23C(=O)CC[C@H](O)C(=O)/C(C)=C/[C@@H](C)C/C=C/[C@H]3[C@@H]1O` [Compound 5, chaetoglobosin Fex]: the IC50 in the assay with PC-3 cells (Homo sapiens, PC-3, read-out: IC50 against PC-3 cells, prostatic carcinoma cell line PC-3, CCK-8, triplicate) amounted to 2.32 µM; with PC-3 cells (read-out: IC50 against PC-3 cells, prostatic carcinoma cell line PC-3, CCK-8, triplicate, listed as C5), 2.32 µM; in assay [1] it was 31.7 µM. Take `CC1=C(C)[C@H]2[C@H](Cc3c[nH]c4ccccc34)NC(=O)[C@]23C(=O)CCC(=O)C(=O)/C(C)=C/[C@@H](C)C/C=C/[C@H]3[C@@H]1O` [Compound 6, chaetoglobosin G]: the 50% inhibitory concentration (IC50) in assay [1] was 8.71 µM.

Take `CC1=C(O)C(=O)[C@@H]2CC(=O)[C@@]34C(=O)N[C@@H](Cc5c[nH]c6ccccc56)[C@@H]3C(C)=C(C)[C@@H](O)[C@@H]4/C=C/C[C@H](C)[C@@H]12` [Compound 9, chaetoglobosin Vb]: the IC50 in assay [1] (setting [2]) stood at 23.7 µM. On the same count and under the same terms, the same measure for `CC1=C(C)[C@H]2[C@H](Cc3c[nH]c4ccccc34)NC(=O)[C@]23C(=O)CC[C@H](O)C(=O)/C(C)=C/[C@@H](C)C/C=C/[C@H]3[C@@H]1O` [Compound 4, chaetoglobosin E]: 4.15 µM. The same measure, in the same setting: the same measure for `CC1=C(O)C(=O)[C@H]2CC(=O)[C@@]34C(=O)N[C@@H](Cc5c[nH]c6ccccc56)[C@@H]3C(C)=C(C)[C@@H](O)[C@@H]4/C=C/C[C@H](C)[C@H]12` [Compound 8, chaetoglobosin V]: 1.31 µM. As for `CC(=O)O[C@@]12CO[C@@H]1C[C@H](O)[C@@]1(C)C(=O)[C@H](O)C3=C(C)[C@@H](OC(=O)[C@H](O)[C@@H](NC(=O)OC(C)(C)C)c4ccccc4)C[C@@](O)([C@@H](OC(=O)c4ccccc4)[C@H]21)C3(C)C` [docetaxel, reference compound], in the assay on PC-3 cells (Homo sapiens, prostatic carcinoma cell line PC-3, CCK-8, triplicate, read-out: IC50 against PC-3 cells), the IC50 stood at 0.12 µM.
